The source of these data is US12723063B2, “GIPR-agonist compounds” (Eli Lilly and Company, priority 2019, dated 2026).

*1 amine or outer side, *2 acyl side, *3 side chain or, on linkers, in order; H or OH if unused. Where a SMILES comes first, the peptide text is derived from it. Side-chain parts run from the residue outwards. [ ]: non-standard residue; d: D form. The star is where a group is joined. C20 diacid = O=C(O)CCCCCCCCCCCCCCCCCCC(=O)*; αMePhe(2-F) = C[C@](N)(Cc1ccccc1F)C(=O)O; γGlu = O=C(O)[C@H](CCC(=O)[*:2])N[*:1]; αMeF = C[C@](N)(Cc1ccccc1)C(=O)O; 4Pal = N[C@@H](Cc1ccncc1)C(=O)O; αMeL = CC(C)C[C@](C)(N)C(=O)O; AEEA = NCCOCCOCC(=O)O; Aib = CC(C)(N)C(=O)O A value given as a limit tells only on which side of the number the result lay.

One assay has as its target T1, human GcgR (Homo sapiens, UniProt P47871).
T1 construct: expressed in transfected cells; crude membranes
The assay is described as follows: [125I]-Glucagon binding, SPA with WGA beads, 0.1% bacitracin. Particulars: geometric mean, read-out: hGcgR Ki. The essentials: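 SPA competition binding with WGA beads on crude membranes from HEK293 cells stably expressing hGcgR. Buffer: 25 mM HEPES pH 7.4, 2.5 mM CaCl2, 1 mM MgCl2, 0.1% bacitracin, 0.003% Tween-20; 10-point 3-fold dilutions, NSB with 1 μM Gcg.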

A further assay addresses T2, human GIPR (Homo sapiens, UniProt P48546).
T2 construct: expressed in transfected cells; crude membranes
T2 sequence (P48546 22-466): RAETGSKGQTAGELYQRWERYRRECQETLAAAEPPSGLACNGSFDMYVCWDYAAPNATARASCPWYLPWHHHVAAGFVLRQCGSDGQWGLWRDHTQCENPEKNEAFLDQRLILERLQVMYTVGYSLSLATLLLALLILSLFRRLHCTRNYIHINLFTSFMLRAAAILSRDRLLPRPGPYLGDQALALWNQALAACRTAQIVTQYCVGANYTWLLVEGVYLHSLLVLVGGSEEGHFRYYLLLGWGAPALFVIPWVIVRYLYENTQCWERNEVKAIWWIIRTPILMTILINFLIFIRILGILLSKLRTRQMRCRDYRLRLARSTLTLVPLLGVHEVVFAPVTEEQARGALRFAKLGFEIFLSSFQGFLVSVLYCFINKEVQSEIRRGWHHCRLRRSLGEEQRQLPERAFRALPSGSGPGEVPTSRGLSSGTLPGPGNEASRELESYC
Description: [125I]-GIP binding, SPA with WGA beads, 0.1% bacitracin. Particulars: geometric mean, read-out: hGIPR Ki. The procedure, abridged: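 Ki values are geometric means (SEM, n independent days), derived from four-parameter nonlinear regression of IC50. Membranes came from hGIPR-expressing CHO cells.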

The next assay deals with T3, human GLP-1R (Homo sapiens, UniProt P43220).
T3 construct: expressed in transfected cells; crude membranes
The assay is described as follows: [125I]-GLP-1 binding, SPA with WGA beads, 0.1% bacitracin. Particulars: geometric mean, read-out: hGLP1R Ki. The procedure, abridged: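 Binding buffer was 25 mM HEPES pH 7.4 with 2.5 mM CaCl2, 1 mM MgCl2, 0.1% (w/v) bacitracin, 0.003% Tween-20 and EDTA-free protease inhibitors. Four-parameter regression gave IC50, converted to Ki (geometric mean, SEM, n independent days).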

T1 sequence (P47871 26-477): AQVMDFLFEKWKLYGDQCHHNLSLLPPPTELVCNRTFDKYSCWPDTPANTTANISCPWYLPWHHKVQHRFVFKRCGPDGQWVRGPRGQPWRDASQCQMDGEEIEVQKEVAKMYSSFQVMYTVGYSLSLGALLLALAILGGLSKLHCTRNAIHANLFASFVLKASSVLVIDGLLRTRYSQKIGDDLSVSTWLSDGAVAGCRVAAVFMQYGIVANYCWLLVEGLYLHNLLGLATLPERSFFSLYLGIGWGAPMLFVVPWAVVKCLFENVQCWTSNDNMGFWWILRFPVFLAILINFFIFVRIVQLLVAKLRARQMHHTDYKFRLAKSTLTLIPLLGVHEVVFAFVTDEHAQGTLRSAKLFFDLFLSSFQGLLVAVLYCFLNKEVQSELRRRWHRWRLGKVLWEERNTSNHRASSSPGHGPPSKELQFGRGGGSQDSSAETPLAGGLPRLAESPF
T3 sequence (P43220 24-463): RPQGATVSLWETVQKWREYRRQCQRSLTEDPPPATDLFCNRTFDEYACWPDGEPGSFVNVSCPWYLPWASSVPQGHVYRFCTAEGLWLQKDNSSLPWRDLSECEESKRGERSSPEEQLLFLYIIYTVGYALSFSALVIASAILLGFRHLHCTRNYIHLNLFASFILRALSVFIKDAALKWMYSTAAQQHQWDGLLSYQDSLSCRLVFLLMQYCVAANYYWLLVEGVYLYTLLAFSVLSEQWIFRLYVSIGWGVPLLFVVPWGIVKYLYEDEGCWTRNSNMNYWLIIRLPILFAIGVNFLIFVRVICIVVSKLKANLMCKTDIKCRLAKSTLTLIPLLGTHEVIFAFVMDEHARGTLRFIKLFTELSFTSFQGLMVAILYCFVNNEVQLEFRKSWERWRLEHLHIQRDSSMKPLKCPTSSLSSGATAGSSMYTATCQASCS

Consider `CC[C@H](C)[C@H](NC(=O)[C@H](Cc1ccccc1)NC(=O)[C@@H](NC(=O)CNC(=O)[C@H](CCC(=O)O)NC(=O)C(C)(C)NC(=O)[C@@H](N)Cc1ccc(O)cc1)[C@@H](C)O)C(=O)N[C@@H](CO)C(=O)N[C@@H](CC(=O)O)C(=O)N[C@@H](Cc1ccc(O)cc1)C(=O)N[C@@H](CO)C(=O)N[C@H](C(=O)N[C@@](C)(CC(C)C)C(=O)N[C@@H](CC(C)C)C(=O)N[C@@H](CC(=O)O)C(=O)N[C@@H](CCCCN)C(=O)N[C@@H](CCCCNC(=O)COCCOCCNC(=O)COCCOCCNC(=O)CC[C@H](NC(=O)CCCCCCCCCCCCCCCCCCC(=O)O)C(=O)O)C(=O)N[C@@H](Cc1c[nH]cn1)C(=O)N[C@@H](CCC(N)=O)C(=O)NC(C)(C)C(=O)N[C@@H](CC(=O)O)C(=O)N[C@@H](Cc1ccccc1)C(=O)N[C@H](C(=O)N[C@@H](CCC(=O)O)C(=O)N[C@@H](Cc1ccncc1)C(=O)N[C@@H](CC(C)C)C(=O)N[C@@H](CC(C)C)C(=O)N[C@@H](C)C(=O)NCC(=O)NCC(=O)N1CCC[C@H]1C(=O)N[C@@H](CO)C(=O)N[C@@H](CO)C(=O)NCC(=O)N[C@@H](C)C(=O)N1CCC[C@H]1C(=O)N1CCC[C@H]1C(=O)N1CCC[C@H]1C(=O)N[C@@H](CO)C(N)=O)C(C)C)[C@@H](C)CC` [Example 48], for which the Ki was found to be 267 nM on human GcgR, 0.0498 nM on human GIPR and 211 nM at human GLP-1R.
In the case of `CC[C@H](C)[C@H](NC(=O)[C@H](Cc1ccccc1)NC(=O)[C@@H](NC(=O)CNC(=O)[C@H](CCC(=O)O)NC(=O)C(C)(C)NC(=O)[C@@H](N)Cc1ccc(O)cc1)[C@@H](C)O)C(=O)N[C@@H](CO)C(=O)N[C@@H](CC(=O)O)C(=O)N[C@@H](Cc1ccc(O)cc1)C(=O)N[C@@H](CO)C(=O)N[C@H](C(=O)N[C@@](C)(CC(C)C)C(=O)N[C@@H](CC(C)C)C(=O)N[C@@H](CC(=O)O)C(=O)N[C@@H](CCCCN)C(=O)N[C@@H](CCCCNC(=O)COCCOCCNC(=O)COCCOCCNC(=O)CC[C@H](NC(=O)CCCCCCCCCCCCCCCCC(=O)O)C(=O)O)C(=O)N[C@@H](Cc1c[nH]cn1)C(=O)N[C@@H](CCC(N)=O)C(=O)NC(C)(C)C(=O)N[C@@H](CC(=O)O)C(=O)N[C@@H](Cc1ccccc1)C(=O)N[C@H](C(=O)N[C@@H](CCC(=O)O)C(=O)N[C@@H](Cc1ccncc1)C(=O)N[C@@H](CC(C)C)C(=O)N[C@@H](CC(C)C)C(=O)N[C@@H](C)C(=O)NCC(=O)NCC(=O)N1CCC[C@H]1C(=O)N[C@@H](CO)C(=O)N[C@@H](CO)C(=O)NCC(=O)N[C@@H](C)C(=O)N1CCC[C@H]1C(=O)N1CCC[C@H]1C(=O)N1CCC[C@H]1C(=O)N[C@@H](CO)C(N)=O)C(C)C)[C@@H](C)CC` [Example 49], the Ki on human GcgR was above 960 nM; on human GIPR, 0.0512 nM; at human GLP-1R it was 596 nM.
Regarding `CC[C@H](C)[C@H](NC(=O)[C@H](CO)NC(=O)[C@H](Cc1ccc(O)cc1)NC(=O)[C@H](CC(=O)O)NC(=O)[C@H](CO)NC(=O)[C@@H](NC(=O)[C@](C)(Cc1ccccc1)NC(=O)[C@@H](NC(=O)CNC(=O)[C@H](CCC(=O)O)NC(=O)C(C)(C)NC(=O)[C@@H](N)Cc1ccc(O)cc1)[C@@H](C)O)[C@@H](C)CC)C(=O)N[C@@](C)(CC(C)C)C(=O)N[C@@H](CC(C)C)C(=O)N[C@@H](CC(=O)O)C(=O)N[C@@H](CCCCN)C(=O)N[C@@H](CCCCNC(=O)COCCOCCNC(=O)COCCOCCNC(=O)CC[C@H](NC(=O)CCCCCCCCCCCCCCCCCCC(=O)O)C(=O)O)C(=O)N[C@@H](Cc1c[nH]cn1)C(=O)N[C@@H](CCC(N)=O)C(=O)NC(C)(C)C(=O)N[C@@H](CC(=O)O)C(=O)N[C@@H](Cc1ccccc1)C(=O)N[C@H](C(=O)N[C@@H](CCC(=O)O)C(=O)N[C@@H](Cc1ccncc1)C(=O)N[C@@H](CC(C)C)C(=O)N[C@@H](CC(C)C)C(=O)N[C@@H](C)C(=O)NCC(=O)NCC(=O)N1CCC[C@H]1C(=O)N[C@@H](CO)C(=O)N[C@@H](CO)C(=O)NCC(=O)N[C@@H](C)C(=O)N1CCC[C@H]1C(=O)N1CCC[C@H]1C(=O)N1CCC[C@H]1C(=O)N[C@@H](CO)C(N)=O)C(C)C` [Example 50] (H-Y[Aib]EGT[αMeF]ISDYSI[αMeL]LDKK([AEEA-AEEA-γGlu-C20 diacid])HQ[Aib]DFVE[4Pal]LLAGGPSSGAPPPS-NH2), the Ki stood at 23.4 nM at human GcgR, 0.0501 nM on human GIPR and 34.9 nM on human GLP-1R.
Turning to `CC[C@H](C)[C@H](NC(=O)[C@H](CO)NC(=O)[C@H](Cc1ccc(O)cc1)NC(=O)[C@H](CC(=O)O)NC(=O)[C@H](CO)NC(=O)[C@@H](NC(=O)[C@](C)(Cc1ccccc1F)NC(=O)[C@@H](NC(=O)CNC(=O)[C@H](CCC(=O)O)NC(=O)C(C)(C)NC(=O)[C@@H](N)Cc1ccc(O)cc1)[C@@H](C)O)[C@@H](C)CC)C(=O)N[C@@](C)(CC(C)C)C(=O)N[C@@H](CC(C)C)C(=O)N[C@@H](CC(=O)O)C(=O)N[C@@H](CCCCN)C(=O)N[C@@H](CCCCNC(=O)COCCOCCNC(=O)COCCOCCNC(=O)CC[C@H](NC(=O)CCCCCCCCCCCCCCCCCCC(=O)O)C(=O)O)C(=O)N[C@@H](Cc1c[nH]cn1)C(=O)N[C@@H](CCC(N)=O)C(=O)NC(C)(C)C(=O)N[C@@H](CC(=O)O)C(=O)N[C@@H](Cc1ccccc1)C(=O)N[C@H](C(=O)N[C@@H](CCC(=O)O)C(=O)N[C@@H](Cc1ccncc1)C(=O)N[C@@H](CC(C)C)C(=O)N[C@@H](CC(C)C)C(=O)N[C@@H](C)C(=O)NCC(=O)NCC(=O)N1CCC[C@H]1C(=O)N[C@@H](CO)C(=O)N[C@@H](CO)C(=O)NCC(=O)N[C@@H](C)C(=O)N1CCC[C@H]1C(=O)N1CCC[C@H]1C(=O)N1CCC[C@H]1C(=O)N[C@@H](CO)C(N)=O)C(C)C` [Example 51] (H-Y[Aib]EGT[αMePhe(2-F)]ISDYSI[αMeL]LDKK([AEEA-AEEA-γGlu-C20 diacid])HQ[Aib]DFVE[4Pal]LLAGGPSSGAPPPS-NH2), the results for the Ki at human GcgR, at human GIPR and on human GLP-1R were 26.7 nM, 0.0386 nM and 54.1 nM, respectively.
As to `CC[C@H](C)[C@H](NC(=O)[C@H](Cc1ccccc1)NC(=O)[C@@H](NC(=O)CNC(=O)[C@H](CCC(=O)O)NC(=O)C(C)(C)NC(=O)[C@@H](N)Cc1ccc(O)cc1)[C@@H](C)O)C(=O)N[C@@H](CO)C(=O)N[C@@H](CC(=O)O)C(=O)N[C@@H](Cc1ccc(O)cc1)C(=O)N[C@@H](CO)C(=O)N[C@H](C(=O)N[C@@](C)(CC(C)C)C(=O)N[C@@H](CC(C)C)C(=O)N[C@@H](CC(=O)O)C(=O)N[C@@H](CCCCN)C(=O)N[C@@H](CCCCNC(=O)COCCOCCNC(=O)COCCOCCNC(=O)CC[C@H](NC(=O)CCCCCCCCCCCCCCCCCCC(=O)O)C(=O)O)C(=O)N[C@@H](Cc1c[nH]cn1)C(=O)N[C@@H](CCC(N)=O)C(=O)NC(C)(C)C(=O)N[C@@H](CCC(=O)O)C(=O)N[C@@H](Cc1ccccc1)C(=O)N[C@H](C(=O)N[C@@H](CCC(=O)O)C(=O)N[C@@H](Cc1ccncc1)C(=O)N[C@@H](CC(C)C)C(=O)N[C@@H](CC(C)C)C(=O)N[C@@H](C)C(=O)NCC(=O)NCC(=O)N1CCC[C@H]1C(=O)N[C@@H](CO)C(=O)N[C@@H](CO)C(=O)NCC(=O)N[C@@H](C)C(=O)N1CCC[C@H]1C(=O)N1CCC[C@H]1C(=O)N1CCC[C@H]1C(=O)N[C@@H](CO)C(N)=O)C(C)C)[C@@H](C)CC` [Example 52], the results for the inhibition constant Ki on human GcgR, at human GIPR and on human GLP-1R were 114 nM, 0.0372 nM and 128 nM, respectively.
Take `CC[C@H](C)[C@H](NC(=O)[C@H](Cc1ccccc1)NC(=O)[C@@H](NC(=O)CNC(=O)[C@H](CCC(=O)O)NC(=O)C(C)(C)NC(=O)[C@@H](N)Cc1ccc(O)cc1)[C@@H](C)O)C(=O)N[C@@H](CO)C(=O)N[C@@H](CC(=O)O)C(=O)N[C@@H](Cc1ccc(O)cc1)C(=O)N[C@@H](CO)C(=O)N[C@H](C(=O)N[C@@](C)(CC(C)C)C(=O)N[C@@H](CC(C)C)C(=O)N[C@@H](CC(=O)O)C(=O)N[C@@H](CCCCN)C(=O)N[C@@H](CCCCNC(=O)COCCOCCNC(=O)COCCOCCNC(=O)CC[C@H](NC(=O)CCCCCCCCCCCCCCCCCCC(=O)O)C(=O)O)C(=O)N[C@@H](Cc1c[nH]cn1)C(=O)N[C@@H](CCC(N)=O)C(=O)NC(C)(C)C(=O)N[C@@H](CC(=O)O)C(=O)N[C@@H](Cc1ccccc1)C(=O)N[C@H](C(=O)N[C@@H](CCC(=O)O)C(=O)N[C@@H](Cc1ccc(O)cc1)C(=O)N[C@@H](CC(C)C)C(=O)N[C@@H](CC(C)C)C(=O)N[C@@H](C)C(=O)NCC(=O)NCC(=O)N1CCC[C@H]1C(=O)N[C@@H](CO)C(=O)N[C@@H](CO)C(=O)NCC(=O)N[C@@H](C)C(=O)N1CCC[C@H]1C(=O)N1CCC[C@H]1C(=O)N1CCC[C@H]1C(=O)N[C@@H](CO)C(N)=O)C(C)C)[C@@H](C)CC` [Example 53] (H-Y[Aib]EGTFISDYSI[αMeL]LDKK([AEEA-AEEA-γGlu-C20 diacid])HQ[Aib]DFVEYLLAGGPSSGAPPPS-NH2): the figures for the Ki on human GcgR, on human GIPR and on human GLP-1R were 152 nM, 0.0184 nM and 62.9 nM, respectively.

As usually defined, the Ki is a dissociation constant, usually derived from enzyme kinetics or from competition with a known ligand.
